Measured values: patent US6767906B2, “2-amino-6-anilino-purines and their use as medicaments” (Novartis AG, priority 1999, dated 2004)

melting point: 214 to 217 °C
Compound: CCn1cnc2c(Nc3cccc(NC(=O)OC)c3)nc(N[C@H]3CC[C@H](O)CC3)nc21 [Example 86, {3-[9-Ethyl-2-(trans-4-hydroxy-cyclo-hexylamino)-9H-purin-6-yl-amino]-phenyl}-carbamic acid methyl ester]
